Measured values published in patent US20060069132A1, “Azolecarboxamide herbicides” (priority 2004, published 2006).

Tests used:
[1] = system: bermudagrass; test: Test C pre-/postemergence herbicide test; assay type: in vivo, Cynodon dactylon
Summary of the method: (§1)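 Preemergence: seeds planted and treated with compound in non-phytotoxic solvent with surfactant; postemergence: plants at 2 to 18 cm (1- to 4-leaf stage) sprayed likewise. Kept in greenhouse 12 to 14 days, then visually rated against controls, 0 (no effect) to 100 (complete control).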

[2] = system: common (oilseed) sunflower; test: Test C pre-/postemergence herbicide test; assay type: in vivo, Helianthus annuus
Summary of the method: as §1

[3] = system: velvetleaf; test: Test C pre-/postemergence herbicide test; assay type: in vivo, Abutilon theophrasti
Summary of the method: as §1

[4] = system: morningglory; test: Test A pre-/postemergence herbicide test; assay type: in vivo, Ipomoea spp.
Summary of the method: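 Sandy loam soil given preemergence directed spray; plants at 2 to 10 cm, one- to two-leaf stage, sprayed to runoff postemergence, compounds in non-phytotoxic solvent with surfactant. Injury rated visually versus untreated controls after about ten greenhouse days, 0 (no effect) to 100 (complete control); dash means not tested.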

[5] = system: woolly cupgrass; test: Test C pre-/postemergence herbicide test; assay type: in vivo, Eriochloa villosa
Summary of the method: as §1

[6] = system: giant foxtail; test: Test C pre-/postemergence herbicide test; assay type: in vivo, Setaria faberi
Summary of the method: as §1

[7] = system: yellow nutsedge; test: Test C pre-/postemergence herbicide test; assay type: in vivo, Cyperus esculentus
Summary of the method: as §1

[8] = 125 g ai/ha, scale 0 (no effect) to 100 (complete control), visual, 12 to 14 days, preemergence
[9] = 250 g ai/ha, scale 0-100, preemergence
[10] = Postemergence, 500 g ai/ha, scale 0 to 100
[11] = 62 g ai/ha, preemergence, scale 0 to 100
[12] = 500 g ai/ha, scale 0 to 100 (0 no effect, 100 complete control), visual, 12 to 14 days, preemergence
[13] = Postemergence, 250 g ai/ha, scale 0 to 100, 0 no effect, 100 complete control
[14] = postemergence, 125 g ai/ha, scale 0 to 100
[15] = postemergence, 62 g ai/ha, scale 0 to 100

C=CCNC(=O)c1cccc(NC(=O)c2cc(C(C)(C)C)nn2C)n1 [Compound 318]
Plant response rating, Bermudagrass ([1]; 62 g ai/ha, preemergence, scale 0 to 100, 0 no effect, 100 complete control): 10
Plant response rating, Bermudagrass [1, 8]: 70
Plant response rating, Bermudagrass [1, 9]: 90
Bermudagrass plant response rating [1, 10]: 80
Bermudagrass plant response rating ([1]; Preemergence, 500 g ai/ha, scale 0 to 100, 0 no effect, 100 complete control): 95
Plant response rating, Sunflower [2, 11]: 0
Plant response rating, Sunflower [2, 9]: 0
Plant response rating, Sunflower [2, 12]: 0
Plant response rating, Velvetleaf [3, 11]: 60
Plant response rating, Velvetleaf [3, 9]: 100
Plant response rating, Velvetleaf [3, 12]: 100
Velvetleaf plant response rating [3, 10]: 60
Plant response rating, Velvetleaf [3, 13]: 40
Plant response rating, Velvetleaf [3, 14]: 35
Plant response rating, Velvetleaf [3, 15]: 0
Morningglory plant response rating ([4]; Postemergence, 500 g ai/ha, 0 to 100 scale, 0 no effect, 100 complete control): 50
Plant response rating, Morningglory ([4]; Postemergence, 2000 g ai/ha, 0 to 100 scale, 0 no effect, 100 complete control): 55
Morningglory plant response rating ([4]; Preemergence, 2000 g ai/ha, visual rating, 0 to 100 scale (0 no effect, 100 complete control)): 50
Morningglory plant response rating ([4]; preemergence, 500 g ai/ha, visual injury, 0 to 100 scale (0 no effect, 100 complete control)): 20
Plant response rating, Cupgrass, Woolly [5, 11]: 0
Plant response rating, Cupgrass, Woolly [5, 8]: 0
Plant response rating, Cupgrass, Woolly [5, 9]: 0
Plant response rating, Cupgrass, Woolly [5, 12]: 10
Cupgrass, Woolly plant response rating [5, 10]: 20
Plant response rating, Cupgrass, Woolly [5, 13]: 10
Plant response rating, Cupgrass, Woolly [5, 14]: 0
Plant response rating, Cupgrass, Woolly [5, 15]: 0
Plant response rating, Foxtail, Giant [6, 11]: 0
Plant response rating, Foxtail, Giant [6, 8]: 10
Plant response rating, Foxtail, Giant [6, 9]: 50
Plant response rating, Foxtail, Giant [6, 12]: 80
Foxtail, Giant plant response rating [6, 10]: 10
Plant response rating, Foxtail, Giant [6, 13]: 5
Plant response rating, Foxtail, Giant [6, 14]: 0
Plant response rating, Foxtail, Giant [6, 15]: 0
Plant response rating, Nutsedge, Yellow [7, 11]: 0
Plant response rating, Nutsedge, Yellow [7, 8]: 0
Plant response rating, Nutsedge, Yellow [7, 9]: 0
Plant response rating, Nutsedge, Yellow [7, 12]: 0
Nutsedge, Yellow plant response rating [7, 10]: 0
Plant response rating, Nutsedge, Yellow [7, 13]: 0
Plant response rating, Nutsedge, Yellow [7, 14]: 0
Plant response rating, Nutsedge, Yellow [7, 15]: 0

CCNC(=O)c1cccc(NC(=O)c2nn(C(C)(C)C)cc2Br)c1 [Compound 221, 4-bromo-1-(1,1-dimethylethyl)-N-[3-[(ethylamino)carbonyl]phenyl]-1H-pyrazole-3-carboxamide]
pest or weed control at 62 g/ha ([1]; Cynodon dactylon, pre-emergence, 312 h, 62 g ai/ha, preemergence, scale 0 to 100, 0 no effect, 100 complete control, read-out: Plant response rating, Bermudagrass): 0%
pest or weed control at 125 g/ha ([1]; Cynodon dactylon, pre-emergence, 312 h, 125 g ai/ha, scale 0 (no effect) to 100 (complete control), visual, 12 to 14 days, read-out: Plant response rating, Bermudagrass): 10%
pest or weed control at 250 g/ha ([1]; Cynodon dactylon, pre-emergence, 312 h, 250 g ai/ha, scale 0-100, read-out: Plant response rating, Bermudagrass): 85%
pest or weed control at 500 g/ha ([1]; Cynodon dactylon, pre-emergence, 312 h, Preemergence, 500 g ai/ha, scale 0 to 100, 0 no effect, 100 complete control, read-out: Bermudagrass plant response rating): 85%
pest or weed control at 62 g/ha ([2]; Helianthus annuus, pre-emergence, 62 g ai/ha, preemergence, scale 0 to 100, read-out: Plant response rating, Sunflower): 0%
pest or weed control at 250 g/ha ([2]; Helianthus annuus, pre-emergence, 250 g ai/ha, scale 0-100, read-out: Plant response rating, Sunflower): 0%
pest or weed control at 500 g/ha ([2]; Helianthus annuus, pre-emergence, 500 g ai/ha, scale 0 to 100 (0 no effect, 100 complete control), visual, 12 to 14 days, read-out: Plant response rating, Sunflower): 30%
pest or weed control at 62 g/ha ([3]; Abutilon theophrasti, pre-emergence, 62 g ai/ha, preemergence, scale 0 to 100, read-out: Plant response rating, Velvetleaf): 0%
pest or weed control at 250 g/ha ([3]; Abutilon theophrasti, pre-emergence, 250 g ai/ha, scale 0-100, read-out: Plant response rating, Velvetleaf): 60%
pest or weed control at 500 g/ha ([3]; Abutilon theophrasti, pre-emergence, 500 g ai/ha, scale 0 to 100 (0 no effect, 100 complete control), visual, 12 to 14 days, read-out: Plant response rating, Velvetleaf): 80%
pest or weed control at 62 g/ha ([5]; Eriochloa villosa, pre-emergence, 312 h, 62 g ai/ha, preemergence, scale 0 to 100, read-out: Plant response rating, Cupgrass, Woolly): 0%
pest or weed control at 125 g/ha ([5]; Eriochloa villosa, pre-emergence, 312 h, 125 g ai/ha, scale 0 (no effect) to 100 (complete control), visual, 12 to 14 days, read-out: Plant response rating, Cupgrass, Woolly): 0%
pest or weed control at 250 g/ha ([5]; Eriochloa villosa, pre-emergence, 312 h, 250 g ai/ha, scale 0-100, read-out: Plant response rating, Cupgrass, Woolly): 0%
pest or weed control at 500 g/ha ([5]; Eriochloa villosa, pre-emergence, 312 h, 500 g ai/ha, scale 0 to 100 (0 no effect, 100 complete control), visual, 12 to 14 days, read-out: Plant response rating, Cupgrass, Woolly): 10%
pest or weed control at 62 g/ha ([6]; Setaria faberi, pre-emergence, 312 h, 62 g ai/ha, preemergence, scale 0 to 100, read-out: Plant response rating, Foxtail, Giant): 0%
pest or weed control at 125 g/ha ([6]; Setaria faberi, pre-emergence, 312 h, 125 g ai/ha, scale 0 (no effect) to 100 (complete control), visual, 12 to 14 days, read-out: Plant response rating, Foxtail, Giant): 0%
pest or weed control at 250 g/ha ([6]; Setaria faberi, pre-emergence, 312 h, 250 g ai/ha, scale 0-100, read-out: Plant response rating, Foxtail, Giant): 40%
pest or weed control at 500 g/ha ([6]; Setaria faberi, pre-emergence, 312 h, 500 g ai/ha, scale 0 to 100 (0 no effect, 100 complete control), visual, 12 to 14 days, read-out: Plant response rating, Foxtail, Giant): 90%
pest or weed control at 62 g/ha ([7]; Cyperus, pre-emergence, 62 g ai/ha, preemergence, scale 0 to 100, read-out: Plant response rating, Nutsedge, Yellow): 0%
pest or weed control at 125 g/ha ([7]; Cyperus, pre-emergence, 125 g ai/ha, scale 0 (no effect) to 100 (complete control), visual, 12 to 14 days, read-out: Plant response rating, Nutsedge, Yellow): 0%
pest or weed control at 250 g/ha ([7]; Cyperus, pre-emergence, 250 g ai/ha, scale 0-100, read-out: Plant response rating, Nutsedge, Yellow): 0%
pest or weed control at 500 g/ha ([7]; Cyperus, pre-emergence, 500 g ai/ha, scale 0 to 100 (0 no effect, 100 complete control), visual, 12 to 14 days, read-out: Plant response rating, Nutsedge, Yellow): 0%
